In the supplement of paper PMC10307832:

Experiments:
Assay in all cases: relative viability (nuclei count vs DMSO), 5 days (fraction); higher = more cells survive
[1] = test system: H3255
Outline: (§1)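 A single step with final 0.05% Triton X-100, 1% formaldehyde and 1 ug/ml Hoechst fixed the cells and stained nuclei 5 days after treatment. Lung cancer cell lines in 1536-well plates had been treated by pin tool the day after seeding with one drug alone or a fixed anchor-drug dose plus five library-drug doses (not always all listed) in √10 steps, and nuclei were counted on 4× images. Relative viability is the ratio of nuclei in treated wells to nuclei in vehicle wells, taken as the median of duplicate plates.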

[2] = test system: NCI-H650
Outline: as §1

[3] = test system: NCI-H1650
Outline: as §1

[4] = test system: NCI-H838
Outline: as §1

[5] = test system: LU99A
Outline: as §1

[6] = test system: SW 1573
Outline: as §1

[7] = test system: PC-3 [JPC-3]
Outline: as §1

[8] = test system: NCI-H460
Outline: as §1

[9] = test system: COR-L23
Outline: as §1

[10] = test system: NCI-H1793
Outline: as §1

[11] = test system: PC-14
Outline: as §1

[12] = test system: LK-2
Outline: as §1

[13] = test system: NCI-H1563
Outline: as §1

[14] = test system: NCI-H727
Outline: as §1

[15] = test system: NCI-H23
Outline: as §1

[16] = test system: NCI-H2347
Outline: as §1

[17] = test system: HCC-44
Outline: as §1

[18] = test system: LCLC-103H
Outline: as §1

[19] = test system: A-427
Outline: as §1

[20] = test system: NCI-H1944
Outline: as §1

[21] = test system: 201T
Outline: as §1

[22] = test system: LCLC-97TM1
Outline: as §1

Compound: C=C1C(=O)O[C@@H](CCCCCCCC)[C@@H]1C(=O)O [C-75] + CS(=O)(=O)N1CCN(Cc2cc3nc(-c4cccc5[nH]ncc45)nc(N4CCOCC4)c3s2)CC1 [Pictilisib] (partner 1 µM)
- relative viability ([1]; first compound 0.08 µM): 0.464
- relative viability ([1]; first compound 0.253 µM): 0.572
- relative viability ([1]; first compound 0.8 µM): 0.458
- relative viability ([1]; first compound 2.53 µM): 0.494
- relative viability ([1]; first compound 8 µM): 0.447
- relative viability ([2]; first compound 0.08 µM): 0.864
- relative viability ([2]; first compound 0.253 µM): 0.825
- relative viability ([2]; first compound 0.8 µM): 0.801
- relative viability ([2]; first compound 2.53 µM): 0.815
- relative viability ([2]; first compound 8 µM): 0.883
- relative viability ([3]; first compound 0.08 µM): 0.632
- relative viability ([3]; first compound 0.253 µM): 0.691
- relative viability ([3]; first compound 0.8 µM): 0.521
- relative viability ([3]; first compound 2.53 µM): 0.474
- relative viability ([3]; first compound 8 µM): 0.619
- relative viability ([4]; first compound 0.08 µM): 0.43
- relative viability ([4]; first compound 0.253 µM): 0.376
- relative viability ([4]; first compound 0.8 µM): 0.444
- relative viability ([4]; first compound 2.53 µM): 0.386
- relative viability ([4]; first compound 8 µM): 0.478
- relative viability ([5]; first compound 0.08 µM): 0.281
- relative viability ([5]; first compound 0.253 µM): 0.306
- relative viability ([5]; first compound 0.8 µM): 0.305
- relative viability ([5]; first compound 2.53 µM): 0.286
- relative viability ([5]; first compound 8 µM): 0.307
- relative viability ([6]; first compound 0.08 µM): 0.555
- relative viability ([6]; first compound 0.253 µM): 0.511
- relative viability ([6]; first compound 0.8 µM): 0.482
- relative viability ([6]; first compound 2.53 µM): 0.346
- relative viability ([6]; first compound 8 µM): 0.365
- relative viability ([7]; first compound 0.08 µM): 0.817
- relative viability ([7]; first compound 0.253 µM): 0.637
- relative viability ([7]; first compound 0.8 µM): 0.674
- relative viability ([7]; first compound 2.53 µM): 0.822
- relative viability ([7]; first compound 8 µM): 0.876
- relative viability ([8]; first compound 0.08 µM): 0.396
- relative viability ([8]; first compound 0.253 µM): 0.472
- relative viability ([8]; first compound 0.8 µM): 0.303
- relative viability ([8]; first compound 8 µM): 0.348
- relative viability ([9]; first compound 0.08 µM): 0.663
- relative viability ([9]; first compound 0.253 µM): 0.865
- relative viability ([9]; first compound 0.8 µM): 0.78
- relative viability ([9]; first compound 2.53 µM): 0.609
- relative viability ([9]; first compound 8 µM): 0.693
- relative viability ([10]; first compound 0.08 µM): 0.339
- relative viability ([10]; first compound 0.253 µM): 0.359
- relative viability ([10]; first compound 0.8 µM): 0.324
- relative viability ([10]; first compound 2.53 µM): 0.215
- relative viability ([10]; first compound 8 µM): 0.372
- relative viability ([11]; first compound 0.08 µM): 0.748
- relative viability ([11]; first compound 0.253 µM): 0.997
- relative viability ([11]; first compound 0.8 µM): 0.668
- relative viability ([11]; first compound 2.53 µM): 0.753
- relative viability ([11]; first compound 8 µM): 0.695
- relative viability ([12]; first compound 0.08 µM): 0.444
- relative viability ([12]; first compound 0.253 µM): 0.662
- relative viability ([12]; first compound 0.8 µM): 0.555
- relative viability ([12]; first compound 2.53 µM): 0.461
- relative viability ([12]; first compound 8 µM): 0.396
- relative viability ([13]; first compound 0.08 µM): 0.606
- relative viability ([13]; first compound 0.253 µM): 0.681
- relative viability ([13]; first compound 0.8 µM): 0.737
- relative viability ([13]; first compound 2.53 µM): 0.673
- relative viability ([13]; first compound 8 µM): 0.63
- relative viability ([14]; first compound 0.08 µM): 0.436
- relative viability ([14]; first compound 0.253 µM): 0.59
- relative viability ([14]; first compound 0.8 µM): 0.339
- relative viability ([14]; first compound 2.53 µM): 0.362
- relative viability ([14]; first compound 8 µM): 0.577
- relative viability ([15]; first compound 0.08 µM): 0.459
- relative viability ([15]; first compound 0.253 µM): 0.686
- relative viability ([15]; first compound 0.8 µM): 0.416
- relative viability ([15]; first compound 2.53 µM): 0.475
- relative viability ([15]; first compound 8 µM): 0.311
- relative viability ([16]; first compound 0.08 µM): 0.554
- relative viability ([16]; first compound 0.253 µM): 0.877
- relative viability ([16]; first compound 0.8 µM): 0.31
- relative viability ([16]; first compound 2.53 µM): 0.592
- relative viability ([16]; first compound 8 µM): 0.649
- relative viability ([17]; first compound 0.08 µM): 0.65
- relative viability ([17]; first compound 0.253 µM): 0.599
- relative viability ([17]; first compound 0.8 µM): 0.558
- relative viability ([17]; first compound 2.53 µM): 0.622
- relative viability ([17]; first compound 8 µM): 0.644
- relative viability ([18]; first compound 0.08 µM): 0.573
- relative viability ([18]; first compound 0.253 µM): 0.641
- relative viability ([18]; first compound 0.8 µM): 0.517
- relative viability ([18]; first compound 2.53 µM): 0.568
- relative viability ([18]; first compound 8 µM): 0.488
- relative viability ([19]; first compound 0.08 µM): 0.786
- relative viability ([19]; first compound 0.253 µM): 0.75
- relative viability ([19]; first compound 0.8 µM): 0.626
- relative viability ([19]; first compound 2.53 µM): 0.62
- relative viability ([19]; first compound 8 µM): 0.718
- relative viability ([20]; first compound 0.08 µM): 0.346
- relative viability ([20]; first compound 0.253 µM): 0.34
- relative viability ([20]; first compound 0.8 µM): 0.33
- relative viability ([20]; first compound 8 µM): 0.342
- relative viability ([21]; first compound 0.08 µM): 0.697
- relative viability ([21]; first compound 0.253 µM): 0.782
- relative viability ([21]; first compound 0.8 µM): 0.628
- relative viability ([21]; first compound 2.53 µM): 0.673
- relative viability ([21]; first compound 8 µM): 0.719
- relative viability ([22]; first compound 0.08 µM): 0.234
- relative viability ([22]; first compound 0.253 µM): 0.215
- relative viability ([22]; first compound 0.8 µM): 0.265
- relative viability ([22]; first compound 2.53 µM): 0.187
- relative viability ([22]; first compound 8 µM): 0.18
